Data reported in the supplement of paper PMC4977894.
Structures can show the parent of a compound that is named as a salt. ± gives the standard deviation of the averaged measurements.

Columns and labels:
[1] = tested on: Homo sapiens (human subject panel, olfactory perception); experiment: perceived odor familiarity rating (rating 0-100); higher = more familiar
Outline: (§1)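 Fifty-five healthy human subjects aged 18–50 took part, and the six lowest performers were excluded. Each molecule was diluted in paraffin oil at high and low concentrations, and 1 mL was sniffed in randomized order over ten visits of 100 stimuli each. Subjects who reported smelling a stimulus rated it on a computerized slider that started at 50 and had to be moved, with positions converted to a 0–100 scale. The familiarity, intensity and pleasantness values are averages across subjects.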

[2] = tested on: Homo sapiens (human subject panel, olfactory perception); experiment: perceived odor pleasantness rating (rating 0-100); higher = more pleasant
Outline: as §1

[3] = tested on: Homo sapiens (human subject panel, olfactory perception); experiment: perceived odor intensity rating (rating 0-100); higher = stronger perceived smell
Outline: as §1

[4] = odor dilution in paraffin oil: 1/10
[5] = odor dilution in paraffin oil: 1/1,000
[6] = odor dilution in paraffin oil: 1/100,000
[7] = odor dilution in paraffin oil: 1/10,000,000

Compound | perceived odor familiarity rating [1, 4] | perceived odor familiarity rating [1, 5] | perceived odor pleasantness rating [2, 4] | perceived odor pleasantness rating [2, 5] | perceived odor intensity rating [3, 4] | perceived odor intensity rating [3, 5] | perceived odor familiarity rating [1, 6] | perceived odor pleasantness rating [2, 6] | perceived odor intensity rating [3, 6] | perceived odor familiarity rating [1, 7] | perceived odor pleasantness rating [2, 7] | perceived odor intensity rating [3, 7]
Nc1ccccc1C(=O)OCCc1ccccc1 [Phenethyl anthranilate] | 50.1 ± 32 | 27.7 ± 23 | 56.9 ± 24 | 48.2 ± 19 | 39.9 ± 32 | 15.1 ± 20 | – | – | – | – | – | –
O=C(OCCc1ccccc1)c1ccccc1 [Phenethyl benzoate] | 47.1 ± 31 | 24.1 ± 21 | 53.6 ± 24 | 49.4 ± 17 | 38 ± 27 | 19.6 ± 22 | – | – | – | – | – | –
O=C(Cc1ccccc1)OCCc1ccccc1 [Phenethyl phenylacetate] | – | 32.8 ± 26 | – | 53.4 ± 23 | – | 42.5 ± 33 | 31.6 ± 32 | 52.9 ± 23 | 17.2 ± 24 | – | – | –
CCC(=O)OCCc1ccccc1 [Phenethyl propionate] | – | 54.6 ± 32 | – | 54.6 ± 27 | – | 49.9 ± 34 | 51.1 ± 30 | 52.6 ± 25 | 26.4 ± 27 | – | – | –
O=C(OCCc1ccccc1)c1ccccc1O [Phenethyl salicylate] | 38.8 ± 29 | 33.8 ± 29 | 58.9 ± 22 | 49.2 ± 22 | 37.3 ± 31 | 17.8 ± 25 | – | – | – | – | – | –
NCCc1ccccc1 [Phenethylamine] | – | 46.8 ± 34 | – | 29.1 ± 28 | – | 62.9 ± 34 | 38.8 ± 26 | 48 ± 25 | 22.8 ± 26 | – | – | –
c1ccc(SSc2ccccc2)cc1 [Phenyl disulfide] | – | 47.2 ± 29 | – | 26.6 ± 23 | – | 61.2 ± 26 | 43.5 ± 29 | 28.3 ± 25 | 52.5 ± 30 | – | – | –
C/C(=C\CO)CCC[C@H](C)CCC[C@H](C)CCCC(C)C [Phytol] | 47.1 ± 32 | 25.4 ± 33 | 28.1 ± 21 | 44.2 ± 30 | 68.8 ± 26 | 19.8 ± 26 | – | – | – | – | – | –
C1CCNCC1 [Piperidine] | – | 53.6 ± 36 | – | 13.2 ± 18 | – | 76.5 ± 24 | 39.4 ± 29 | 48.2 ± 24 | 28.6 ± 31 | – | – | –
O=C(/C=C/C=C/c1ccc2c(c1)OCO2)N1CCCCC1 [Piperine] | 49.2 ± 31 | 20.9 ± 26 | 51.5 ± 26 | 44.9 ± 29 | 54.1 ± 29 | 19.4 ± 27 | – | – | – | – | – | –
CC(C)C(=O)OCc1ccc2c(c1)OCO2 [Piperonyl isobutyrate] | – | 38.4 ± 29 | – | 48.3 ± 25 | – | 29.4 ± 27 | 30.2 ± 25 | 43.1 ± 18 | 26.4 ± 30 | – | – | –
CCCOC(=O)CC [Propyl propionate] | – | 50.4 ± 32 | – | 44.4 ± 26 | – | 72.1 ± 21 | 33.7 ± 27 | 48.7 ± 25 | 22.9 ± 25 | – | – | –
CC(O)CO (stereo not drawn) [Propylene glycol] | 52.2 ± 30 | 33.7 ± 29 | 46.2 ± 25 | 42.5 ± 25 | 45.8 ± 34 | 10.5 ± 13 | – | – | – | – | – | –
SCCc1cnccn1 [Pyrazineethanethiol] | – | – | – | – | – | – | 37.2 ± 33 | 45.4 ± 26 | 33.8 ± 38 | 29.8 ± 25 | 49.2 ± 20 | 23.6 ± 22
C1CCNC1 [Pyrrolidine] | – | – | – | – | – | – | 28.9 ± 29 | 40.7 ± 19 | 26.9 ± 26 | 37.2 ± 27 | 37.5 ± 22 | 26.6 ± 24
CC(=O)C(=O)O [Pyruvic Acid] | – | 52.1 ± 29 | – | 39.1 ± 28 | – | 70.6 ± 23 | 44.5 ± 29 | 53.4 ± 24 | 37.7 ± 32 | – | – | –
c1ccc2ncccc2c1 [Quinoline] | – | 47.7 ± 34 | – | 22.4 ± 24 | – | 80.7 ± 18 | 41.4 ± 26 | 34.1 ± 24 | 56.4 ± 27 | – | – | –
O.O.O=P([O-])([O-])O.[Na+].[Na+] [Sodium phosphate dibasic] | 40.5 ± 32 | 31.5 ± 24 | 63.4 ± 26 | 46.2 ± 26 | 27.2 ± 27 | 24.1 ± 25 | – | – | – | – | – | –
O=C(O)CCC(=O)O [Succinic acid] | 35.5 ± 25 | 35.5 ± 32 | 34.6 ± 24 | 36.1 ± 21 | 46.2 ± 35 | 32.3 ± 27 | – | – | – | – | – | –
CC1=CCC(C(C)(C)OC=O)CC1 (stereo not drawn) [Terpinyl formate] | – | 45.6 ± 31 | – | 37.8 ± 26 | – | 42.2 ± 30 | 28.1 ± 26 | 46.9 ± 30 | 14.6 ± 20 | – | – | –
CC(=O)OCC1CCCO1 (stereo not drawn) [Tetrahydrofurfuryl acetate] | – | 42.4 ± 28 | – | 40.6 ± 26 | – | 55.6 ± 24 | 27.8 ± 24 | 49.1 ± 26 | 17 ± 24 | – | – | –
OCC1CCCO1 (stereo not drawn) [Tetrahydrofurfuryl alcohol] | – | 30.3 ± 29 | – | 42.7 ± 25 | – | 29.6 ± 27 | 40.3 ± 28 | 45.1 ± 22 | 18.4 ± 23 | – | – | –
Cc1ncc(C[n+]2csc(CCO)c2C)c(N)n1 [Thiamine hydrochloride] | 51.5 ± 29 | 44.7 ± 28 | 35.5 ± 25 | 36.4 ± 22 | 67.1 ± 23 | 61.6 ± 25 | – | – | – | – | – | –
c1cscn1 [Thiazole] | – | 41.3 ± 29 | – | 43.2 ± 24 | – | 25.1 ± 27 | 27.2 ± 25 | 45.5 ± 21 | 18.8 ± 22 | – | – | –
c1ccsc1 [Thiophene (replicate)] | – | 53.9 ± 31 | – | 33.7 ± 27 | – | 66.4 ± 25 | 42.1 ± 26 | 36 ± 22 | 27.6 ± 31 | – | – | –
c1ccsc1 [Thiophene] | – | 39.3 ± 29 | – | 28.7 ± 20 | – | 32.8 ± 34 | 43.1 ± 30 | 40.8 ± 24 | 39.5 ± 30 | – | – | –
CC(=O)OCC(COC(C)=O)OC(C)=O [Triacetin] | 54.5 ± 35 | 39.2 ± 35 | 33.1 ± 25 | 38.9 ± 24 | 57.8 ± 29 | 45.1 ± 30 | – | – | – | – | – | –
CCCCOC(=O)CC(CC(=O)OCCCC)(OC(C)=O)C(=O)OCCCC [Tributyl-2-Acetylcitrate] | 35.9 ± 28 | 37.7 ± 28 | 43.2 ± 22 | 51.5 ± 23 | 41.4 ± 30 | 6.93 ± 11 | – | – | – | – | – | –
